Assay results as given in patent US7915237B2, “Production of pure stereoisomers of tricyclo[5.2.1.02.6]-dec-9-yl-xanthogenate and medicaments therefrom” (Lumavita AG, priority 2001, dated 2011).

What was measured:
Herpes simplex virus 1 [1] = assay: Inhibition of Herpes proliferation by measuring the cytopathogenic effect; format: cell-based, Herpes simplex virus 1 in monkey kidney cells (Rita strain); conditions: 50 PFU HSV-1, pH 6.8, microscopy after 6 days
Description: The inhibition of the proliferation of Herpes by exo/exo-tricyclo[5.2.1.0^2.6]dec-9-yl-xanthogenate was determined by measuring the cytopathogenic effect. For this purpose, monkey kidneys cells (Rita strain) were seeded on Linbro plates. After 24 hours, 50 plaque-forming units of Herpes simplex virus 1 were added to each culture. After allowing for adsorption for one hour, fresh culture medium adjusted to pH 6.8 was added. Four cultures each were treated either with the pure exo/exo isomer or a mixture of isomers containing 83% of the exo/exo isomer using the following concentrations: 0, 5, 10, 15 or 20 μg/ml. The cultures were analyzed by microscopy after 6 days. Untreated cultures were completely lysed as a result of virus proliferation (cytopathogenic effect).

Herpes simplex virus 1 [2] = assay: Inhibition of Herpes proliferation by measuring viral proliferation (plaque assay of supernatants); format: cell-based, Herpes simplex virus 1 in monkey kidney cells (Rita strain)
Description: The inhibition of the proliferation of Herpes by exo/exotricyclo[5.2.1.0^2.6]dec-9-yl-xanthogenate was determined by measuring viral proliferation. For this purpose, monkey kidneys cells (Rita strain) were seeded on Linbro plates. After 24 hours, 100 plaque-forming units of Herpes simplex virus 1 were added to each culture. After allowing for adsorption for one hour, fresh culture medium adjusted to pH 6.8 was added. Four cultures each were treated either with the pure exo/exo isomer or a mixture of isomers containing 83% of the exo/exo isomer using the following concentrations: 0, 5, 10 or 15 μg/ml. The virus concentrations in the supernatants of the cultures were determined after four days by means of plaque assays. The curves were used to determine the concentration at which viral proliferation was inhibited by 50% (IC50). An IC50 of 0.6 μg/ml was found for the exo/exo isomer. […] This means that the pure exo/exo isomer effected a 50% reduction of viral proliferation at a more than 10-fold lower concentration as compared to the mixture of isomers.

S=C(S)OC1CC2CC1C1CCCC21 (single isomer, unassigned) [exo/exo isomer, exo/exo-tricyclo[5.2.1.0^2.6]dec-9-yl-xanthogenate]
cytopathogenic effect in treated cultures (Herpes simplex virus 1 [1]; 5, 10, 15 or 20 μg/ml): no evidence of a cytopathogenic effect | concentration at which proliferation of the virus was completely suppressed (no cytopathogenic effect) (Herpes simplex virus 1 [1]; tested 5-20 μg/ml): ≤ 5 µg/mL | concentration at which viral proliferation was inhibited by 50% (IC50) (Herpes simplex virus 1 [2]; 100 PFU HSV-1, pH 6.8, virus in supernatant after four days, from dose-response curve): 0.6 µg/mL | fold lower concentration for 50% reduction of viral proliferation as compared to the mixture of isomers (Herpes simplex virus 1 [2]; IC50 ratio versus mixture containing 83% exo/exo isomer): more than 10 fold | fold stronger antiviral effect than the mixture of isomers (Herpes simplex virus 1 [2]; summary statement, versus mixture of 83% exo/exo and 17% other isomers): 4-10 fold
